Experimental data from patent publication US12227482B2, “Compounds and compositions for the treatment of cancer” (The Regents of the University of California, priority 2016, dated 2025).

Columns and labels:
Assay type in all cases: cell-based
LOX cells = assay: Cell viability (CellTiter-Glo ATP content) in LOX cells; settings: LOX, 72 h, 72 hours treatment, cell survival by CellTiter-Glo, 2% fetal bovine serum
Summary of the method: (§1)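 Cells plated at 5,000 per well in antibiotic-free RPMI with 2% FBS, treated next day in triplicate with increasing compound doses (final DMSO 0.5%) for 72 hours. Viability read as ATP content by CellTiter-Glo luminescence; percent survival relative to vehicle control set as 100%.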

A549 cells = assay: Cell viability (CellTiter-Glo ATP content) in A549 cells; settings: Homo sapiens, A549, 72 h, 72 hours treatment, cell survival by CellTiter-Glo, 2% fetal bovine serum
Summary of the method: as §1

MelJuSo cells = assay: Cell viability (CellTiter-Glo ATP content) in MelJuSo cells; settings: Homo sapiens, MEL-JUSO, 72 hours treatment, cell survival by CellTiter-Glo, 2% fetal bovine serum
Summary of the method: as §1

Compound	IC50 (LOX cells) [µM]	IC50 (A549 cells) [µM]	IC50 (MelJuSo cells) [µM]
CCCCC1C(c2ccc(F)cc2)=NN(c2ccccc2)C1(C)C(=O)N(CCO)Cc1ccccc1 (stereo not drawn) [Compound 78, N-benzyl-4-butyl-3-(4-fluorophenyl)-N-(2-hydroxyethyl)-5-methyl-1-phenyl-4,5-dihydro-1H-pyrazole-5-carboxamide]	> 2	> 2	> 2
CCCCC1C(c2ccc(F)cc2)=NN(c2ccccc2)C1(C)C(=O)NCCS(C)(=O)=O (stereo not drawn) [Compound 79, 4-butyl-3-(4-fluorophenyl)-5-methyl-N-(2-(methylsulfonyl)ethyl)-1-phenyl-4,5-dihydro-1H-pyrazole-5-carboxamide]	> 2	> 2	> 2
CCCCC1C(c2ccc(F)cc2)=NN(c2ccccc2)C1(C)C(=O)NCc1ccc(CN2CCOCC2)cc1 (stereo not drawn) [Compound 80, 4-butyl-3-(4-fluorophenyl)-5-methyl-N-(4-(morpholinomethyl)benzyl)-1-phenyl-4,5-dihydro-1H-pyrazole-5-carboxamide]	> 2	> 2	> 2
CCCCC1C(c2ccc(F)cc2)=NN(c2ccc(F)cc2F)C1(C)C(=O)NCC(=O)OC (stereo not drawn) [Compound 81, methyl 2-(4-butyl-1-(2,4-difluorophenyl)-3-(4-fluorophenyl)-5-methyl-4,5-dihydro-1H-pyrazole-5-carboxamido)acetate]	0.5 to 1	0.5 to 1	< 0.25
CCCCC1C(c2ccc(F)cc2)=NN(c2ccc(F)cc2F)C1(C)C(=O)NCC(=O)O (stereo not drawn) [Compound 82, 2-(4-butyl-1-(2,4-difluorophenyl)-3-(4-fluorophenyl)-5-methyl-4,5-dihydro-1H-pyrazole-5-carboxamido)acetic acid]	> 2	> 2	> 2
CCCCC1C(c2ccc(F)cc2)=NN(c2ccc(F)cc2F)C1(C)C(=O)NCCC#N (stereo not drawn) [Compound 83, 4-butyl-N-(2-cyanoethyl)-1-(2,4-difluorophenyl)-3-(4-fluorophenyl)-5-methyl-4,5-dihydro-1H-pyrazole-5-carboxamide]	1 to 2	1 to 2	0.5 to 1
CCCCC1C(c2ccc(F)cc2)=NN(c2ccc(F)cc2F)C1(C)C(=O)NCCO (stereo not drawn) [Compound 84, 4-butyl-1-(2,4-difluorophenyl)-3-(4-fluorophenyl)-N-(2-hydroxyethyl)-5-methyl-4,5-dihydro-1H-pyrazole-5-carboxamide]	1 to 2	1 to 2	0.5 to 1
CC(C)(CO)CCCNC(=O)C1(C)C(c2ccsc2)C(c2ccc(F)cc2)=NN1c1ccc(F)cc1F (stereo not drawn) [Compound 85, 1-(2,4-difluorophenyl)-3-(4-fluorophenyl)-N-(5-hydroxy-4,4-dimethylpentyl)-5-methyl-4-(thiophen-3-yl)-4,5-dihydro-1H-pyrazole-5-carboxamide]	< 0.25	0.25 to 0.5	< 0.25
COCCNC(=O)C1(C)C(c2ccsc2)C(c2ccc(F)cc2)=NN1c1ccc(F)cc1F (stereo not drawn) [Compound 86, 1-(2,4-difluorophenyl)-3-(4-fluorophenyl)-N-(2-methoxyethyl)-5-methyl-4-(thiophen-3-yl)-4,5-dihydro-1H-pyrazole-5-carboxamide]	< 0.25	< 0.25	< 0.25
CCCCC1(C)C(c2ccc(F)cc2)=NN(c2ccc(F)cc2F)C1(C)C(=O)NCCCC(C)(C)CO (stereo not drawn) [Compound 87, 4-butyl-1-(2,4-difluorophenyl)-3-(4-fluorophenyl)-N-(5-hydroxy-4,4-dimethylpentyl)-4,5-dimethyl-4,5-dihydro-1H-pyrazole-5-carboxamide]	> 2	> 2	> 2
CCCCC1(C)C(c2ccc(F)cc2)=NN(c2ccc(F)cc2F)C1(C)C(=O)NCCOC (stereo not drawn) [Compound 88, 4-butyl-1-(2,4-difluorophenyl)-3-(4-fluorophenyl)-N-(2-methoxyethyl)-4,5-dimethyl-4,5-dihydro-1H-pyrazole-5-carboxamide]	> 2	> 2	> 2
CCCCC1C(c2ccc(F)cc2F)=NN(c2ccc(F)cc2F)C1(C)C(=O)NCCCC(C)(C)CO (stereo not drawn) [Compound 89, 4-butyl-1,3-bis(2,4-difluorophenyl)-N-(5-hydroxy-4,4-dimethylpentyl)-5-methyl-4,5-dihydro-1H-pyrazole-5-carboxamide]	0.5 to 1	1 to 2	0.5 to 1
CCCCC1C(c2ccc(F)cc2F)=NN(c2ccc(F)cc2F)C1(C)C(=O)NCCOC (stereo not drawn) [Compound 90, 4-butyl-1,3-bis(2,4-difluorophenyl)-N-(2-methoxyethyl)-5-methyl-4,5-dihydro-1H-pyrazole-5-carboxamide]	0.5 to 1	0.5 to 1	< 0.25
CC(C)(CO)CCCNC(=O)C1(C)C(c2ccco2)C(c2ccc(F)cc2)=NN1c1ccc(F)cc1F (stereo not drawn) [Compound 91, 1-(2,4-difluorophenyl)-3-(4-fluorophenyl)-4-(furan-2-yl)-N-(5-hydroxy-4,4-dimethylpentyl)-5-methyl-4,5-dihydro-1H-pyrazole-5-carboxamide]	0.25 to 0.5	0.25 to 0.5	< 0.25
COCCNC(=O)C1(C)C(c2ccco2)C(c2ccc(F)cc2)=NN1c1ccc(F)cc1F (stereo not drawn) [Compound 92, 1-(2,4-difluorophenyl)-3-(4-fluorophenyl)-4-(furan-2-yl)-N-(2-methoxyethyl)-5-methyl-4,5-dihydro-1H-pyrazole-5-carboxamide]	< 0.25	< 0.25	< 0.25
CCCCC1C(c2c(F)cc(F)cc2F)=NN(c2ccc(F)cc2F)C1(C)C(=O)NCCCC(C)(C)CO (stereo not drawn) [Compound 97, 4-butyl-1-(2,4-difluorophenyl)-N-(5-hydroxy-4,4-dimethylpentyl)-5-methyl-3-(2,4,6-trifluorophenyl)-4,5-dihydro-1H-pyrazole-5-carboxamide]	1 to 2	> 2	0.5 to 1
CCCCC1C(c2c(F)cc(F)cc2F)=NN(c2ccc(F)cc2F)C1(C)C(=O)NCC(=O)OC (stereo not drawn) [Compound 98, methyl 2-(4-butyl-1-(2,4-difluorophenyl)-5-methyl-3-(2,4,6-trifluorophenyl)-4,5-dihydro-1H-pyrazole-5-carboxamido)acetate]	> 2	> 2	0.5 to 1
Cc1ccc(C2C(c3ccc(F)cc3)=NN(c3ccc(F)cc3F)C2(C)C(=O)NCCCC(C)(C)CO)s1 (stereo not drawn) [Compound 99, 1-(2,4-difluorophenyl)-3-(4-fluorophenyl)-N-(5-hydroxy-4,4-dimethylpentyl)-5-methyl-4-(5-methylthiophen-2-yl)-4,5-dihydro-1H-pyrazole-5-carboxamide]	> 2	> 2	1 to 2
COCCNC(=O)C1(C)C(c2ccc(C)s2)C(c2ccc(F)cc2)=NN1c1ccc(F)cc1F (stereo not drawn) [Compound 100, 1-(2,4-difluorophenyl)-3-(4-fluorophenyl)-N-(2-methoxyethyl)-5-methyl-4-(5-methylthiophen-2-yl)-4,5-dihydro-1H-pyrazole-5-carboxamide]	1 to 2	> 2	0.25 to 0.5
CC(C)(CO)CCCNC(=O)C1(C)C(c2ccc(Cl)s2)C(c2ccc(F)cc2)=NN1c1ccc(F)cc1F (stereo not drawn) [Compound 101, 4-(5-chlorothiophen-2-yl)-1-(2,4-difluorophenyl)-3-(4-fluorophenyl)-N-(5-hydroxy-4,4-dimethylpentyl)-5-methyl-4,5-dihydro-1H-pyrazole-5-carboxamide]	> 2	> 2	0.5 to 1
COCCNC(=O)C1(C)C(c2ccc(Cl)s2)C(c2ccc(F)cc2)=NN1c1ccc(F)cc1F (stereo not drawn) [Compound 102, 4-(5-chlorothiophen-2-yl)-1-(2,4-difluorophenyl)-3-(4-fluorophenyl)-N-(2-methoxyethyl)-5-methyl-4,5-dihydro-1H-pyrazole-5-carboxamide]	0.5 to 1	1 to 2	0.25 to 0.5
COC(=O)CNC(=O)C1(C)C(c2cccs2)C(c2ccc(F)cc2)=NN1c1ccc(F)cc1F (stereo not drawn) [Compound 103, methyl 2-(1-(2,4-difluorophenyl)-3-(4-fluorophenyl)-5-methyl-4-(thiophen-2-yl)-4,5-dihydro-1H-pyrazole-5-carboxamido)acetate]	0.5 to 1	0.5 to 1	< 0.25
CC(C)(O)CNC(=O)CNC(=O)C1(C)C(c2cccs2)C(c2ccc(F)cc2)=NN1c1ccc(F)cc1F (stereo not drawn) [Compound 104, 1-(2,4-difluorophenyl)-3-(4-fluorophenyl)-N-(2-(2-hydroxy-2-methylpropylamino)-2-oxoethyl)-5-methyl-4-(thiophen-2-yl)-4,5-dihydro-1H-pyrazole-5-carboxamide]	1 to 2	> 2	0.5 to 1
CC1(C(=O)NCC(=O)N2CCS(=O)(=O)CC2)C(c2cccs2)C(c2ccc(F)cc2)=NN1c1ccc(F)cc1F (stereo not drawn) [Compound 105, 1-(2,4-difluorophenyl)-3-(4-fluorophenyl)-5-methyl-N-(1,1-dioxo-1-thiomorpholine-2-oxoethyl)-4-(thiophen-2-yl)-4,5-dihydro-1H-pyrazole-5-carboxamide]	> 2	> 2	> 2
CC1(C(=O)NCC(=O)N2CCOCC2)C(c2cccs2)C(c2ccc(F)cc2)=NN1c1ccc(F)cc1F (stereo not drawn) [Compound 106, 1-(2,4-difluorophenyl)-3-(4-fluorophenyl)-5-methyl-N-(2-morpholino-2-oxoethyl)-4-(thiophen-2-yl)-4,5-dihydro-1H-pyrazole-5-carboxamide]	> 2	> 2	> 2
